Test results from US20260325515A1, “TREATMENT OF CANINE CANCERS” (OneHealthCompany, Inc., priority 2023, published 2026).

Key:
Type in all cases: in vivo, canine (dogs)
[1] = tested on: Squamous cell carcinoma; experiment: Survival of dogs with squamous cell carcinoma treated with Toceranib (Cox proportional-hazards model)
Source text: (§1) A Cox proportional-hazards model was used to fit survival time. The model estimates the risk of death at a given time, h(t|X)=h(t)*exp(X1β1+ . . . +Xpβp), where h represents the risk of death at time t, and X represents p covariates. Additionally, the ratio of the hazard rates in the treatment group versus the control group is represented as the hazard ratio.
(§2) A one-hot encoded feature for each targeted therapy (treatment) received by the dog was created. For example, if a dog receives multiple treatments, the encoding for each treatment would be a “1,” otherwise, a treatment is encoded as “0”. Similarly, gene mutations were one-hot encoded and treated as independent variables during the analyses. Tumor types were grouped into broad categories to preserve sample size and include them as one-hot encoded features.
(§3) Each dog's survival time and status were determined based on their last known update, which was reported by the veterinarian's office. A dog is only considered deceased if there is a reported date of death, and is only considered to have survived up until the last known update. Two survival intervals were computed: survival from time of diagnosis and survival from time of treatment. When reporting hazard ratios regardless of intervention, survival time is defined as survival from time of diagnosis, which is the time from diagnosis to last known update if the dog is still active, and the time from diagnosis to death if the dog is deceased. When reporting hazard ratios for specific treatments, survival time is defined as survival from treatment. The first date of any targeted therapy being ordered is used as the start of the treatment date.
(§4) Demographic features, including weight in kilograms, sex, and reproductive status (neutered or spayed vs intact), were extracted and used as covariates in the Cox model. In addition, to control for each dog's baseline survival rates, the dog's age at diagnosis, as well as the time from diagnosis to treatment are included, which is computed by […].

[2] = tested on: carcinoma; experiment: Survival of dogs with carcinoma with Toceranib; conditions: 65 without Toceranib
Source text: Dogs receiving Toceranib achieved a median survival of 419 days compared to 250 days in untreated cases, with a hazard ratio of 0.292 and a statistically significant p-value of 0.003 (Table 3).

[3] = tested on: TP53-mutated canine tumors; experiment: Real-world clinico-genomic analysis, TP53-mutated canine tumors
Protocol: (§5) Briefly, real-world clinico-genomic data from 3000 dogs were analyzed.

[4] = tested on: RB1-mutated canine tumors; experiment: Real-world clinico-genomic analysis, RB1-mutated canine tumors; conditions: Rapamycin, P=0.024
Protocol: as §5

[5] = tested on: soft tissue sarcomas with TP53 mutations; experiment: Real-world clinico-genomic analysis, soft tissue sarcomas with TP53 mutations
Protocol: as §5

[6] = tested on: Melanoma; experiment: Survival of dogs with melanoma treated with Palbociclib (Cox proportional-hazards model)
Source text: as §1, §2, §3, §4

[7] = tested on: Osteosarcoma; experiment: Survival of dogs with osteosarcoma treated with Olaparib (Cox proportional-hazards model)
Source text: as §1, §2, §3, §4

[8] = tested on: BRCA1-mutated cases; experiment: Real-world clinico-genomic analysis, BRCA1-mutated cases; conditions: Olaparib, P=0.004
Protocol: as §5

[9] = tested on: TP53 mutant osteosarcomas; experiment: Real-world clinico-genomic analysis, TP53 mutant osteosarcomas; conditions: Olaparib, P<0.001
Protocol: as §5

[10] = tested on: Anal Sac carcinoma; experiment: Survival of dogs with anal sac carcinoma with Olaparib; conditions: 85 without Olaparib
Source text: A significant survival benefit in dogs with anal sac carcinoma treated with Olaparib was observed. Dogs receiving Olaparib achieved a median survival of 422 days compared to 273 days in untreated cases, with a hazard ratio of 0.319 and a statistically significant p-value of 0.023 (Table 2).

[11] = tested on: oral malignant melanoma carrying BRCA1/2 mutations; experiment: Survival of dogs with oral malignant melanoma carrying BRCA1/2 mutations treated with Olaparib; conditions: oral malignant melanoma with BRCA1/2 mutations, vs 235 days for other biomarker profiles and alternative drugs, P=0.0120

With `Cc1[nH]c(/C=C2\C(=O)Nc3ccc(F)cc32)c(C)c1C(=O)NCCN1CCCC1` [Toceranib] the “Median survival (#patients) with treatment” value (“Median survival (#patients)” below) ([1]; dogs, 13 patients with treatment, 183 d (32) without treatment) was 577 d (13), the “Hazard Ratio (Signal Efficacy)” value ([1]; dogs, treatment vs control, P = 0.005) was 0.072 and the “median survival” value ([1]; vs. 183 days without treatment) was 577 days. For the same compound, the “Median Survival With Toceranib” value ([2]; 26 dogs with, without Toceranib 250 days) was 419 days and the “Hazard Ratio” value ([2]; 95% CI printed (1.31-0.65), p-value 0.003, 26 dogs with) was 0.292.
For `CO[C@H]1C[C@@H]2CC[C@@H](C)[C@@](O)(O2)C(=O)C(=O)N2CCCC[C@H]2C(=O)O[C@H]([C@H](C)C[C@@H]2CC[C@@H](O)[C@H](OC)C2)CC(=O)[C@H](C)/C=C(\C)[C@@H](O)[C@@H](OC)C(=O)[C@H](C)C[C@H](C)/C=C/C=C/C=C/1C` [Rapamycin], the “OS HR” value ([3]; TP53-mutated canine tumors, Rapamycin, P=0.028) was 0.73, the “OS HR” value [4] was 0.32 and the “OS HR” value ([5]; Rapamycin, P=0.012) was 0.11.
In the case of `CC(=O)c1c(C)c2cnc(Nc3ccc(N4CCNCC4)cn3)nc2n(C2CCCC2)c1=O` [Palbociclib], the “Median survival (#patients)” value ([6]; dogs, 13 patients with treatment, 159 d (114) without treatment) is reported as 433 d (13), the “Hazard Ratio (Signal Efficacy)” value ([6]; dogs, treatment vs control, P = 0.043) is reported as 0.273 and the “median survival” value ([6]; vs. 159 days without treatment) is reported as 433 days.
With `O=C(c1cc(Cc2n[nH]c(=O)c3ccccc23)ccc1F)N1CCN(C(=O)C2CC2)CC1` [Olaparib] the “Median survival (#patients)” value ([7]; dogs, 16 patients with treatment, 154 d (158) without treatment) was “Inf (16)”, the “Hazard Ratio (Signal Efficacy)” value ([7]; dogs, treatment vs control, P = 0.021) was 0.181 and the “median survival” value ([7]; vs. 154 days without treatment) was “no death observed”. The “OS HR” value ([3]; TP53-mutated cases, Olaparib, P<0.001) was 0.34, the “OS HR” value [8] was 0.39 and the “OS HR” value [9] was 0.11. The “OS HR” value ([5]; Olaparib, P=0.011) was 0.07, the “Median Survival With Olaparib” value ([10]; 13 dogs with, without Olaparib 372 days (Table 2) / 273 days) was 422 days and the “Hazard Ratio” value ([10]; 95% CI (0.119-0.855), p-value 0.023, 13 dogs with) was 0.319. For the same compound, the median survival [11] was 448 days.
